From patent US20210030761A1, “TREATMENT AND PREVENTION OF ALPHA HERPES VIRUS INFECTION” (THE REGENTS OF THE UNIVERSITY OF COLORADO, a body corporate, priority 2018, published 2021)

Key:
[1] = tested on: VZV-infected primary human spinal astrocytes (HA-sp); test: Immunocytochemistry of cellular processes and NK-1R localization in VZV-infected HA-sp; type: cell-based; details: 3 DPI; 10 μM aprepitant; versus vehicle
Protocol: (§1) Cell Culture and Infection: Primary human spinal astrocytes (HA-sp; Sciencell, Carlsbad, Calif.) were seeded at 5,000 cells/cm' in a basal astrocyte medium containing 2% fetal bovine serum (FBS), 1% astrocyte growth supplement, and 1% 100× penicillin-streptomycin (Sciencell). After 24 hours, medium was changed to basal astrocyte medium containing 0.1% FBS and 1% 100× penicillin-streptomycin that was replenished every 72 hours for 7 days to establish quiescence. On day 7, spinal astrocytes were co-cultivated with VZV-infected spinal astrocytes (40 pfu/mL) or mock-infected spinal astrocytes. […] Light microscopy images to observe a cytopathic effect were obtained at 12, 24, 48 and 72 HPI followed by DNA extraction and PCR quantification of VZV DNA as described below. Substance P ELISA: Substance P was quantitated from mock- and VZV-infected HA-sp using a colorimetric competitive enzyme immunoassay kit according to the manufacturer's instructions (Enzo, Farmingdale, N.Y.). The sensitivity range was 9.76-10,000 pg/mL, as determined by controls run on the same assay as samples. Immunofluorescence Assay: HA-sp were propagated and treated as described above in an ibidi 24-well μ-Plate (ibidi, Martinsried, Germany). […] GFAP and NK-1R were detected using a 1:500 dilution of chicken anti-GFAP (Abcam) and a 1:100 dilution of rabbit anti-NK-1R (Novus Biologicals LLC, Littleton, Colo.), respectively. […]

uninfected HA-sp = details: tested at 1-100 μM, data not shown
Protocol: as §1

VZV = test: Total VZV DNA in adult primary human perineurial cells (HPNCs); type: cell-based, varicella zoster virus; details: 72 HPI
Source text: At 12, 24, 48, and 72 HPI, cells were visualized by light microscopy in the untreated and treated cultures and harvested for DNA.

[2] = tested on: quiescent uninfected spinal astrocytes; test: Substance P treatment of uninfected spinal astrocytes: NK-1R distribution by immunofluorescence and process formation by CellTracker Deep Red; type: cell-based, human; details: 10^−6 M substance P for 60 minutes
Protocol: as §1

How did the “lamellipodia formation in VZV-infected cells” value [1] turn out when C[C@@H](O[C@H]1OCCN(Cc2n[nH]c(=O)[nH]2)[C@H]1c1ccc(F)cc1)c1cc(C(F)(F)F)cc(C(F)(F)F)c1 [aprepitant] was run?
Its value is “reduction in lamellipodia formation”.

What about the “optimal concentration to avoid cell death” value (uninfected HA-sp) of the same compound?
The value was 10 µM.

What does the source list for C[C@@H](OC[C@@]1(c2ccccc2)CC[C@]2(CCC(=O)N2)CN1)c1cc(C(F)(F)F)cc(C(F)(F)F)c1 [rolapitant]?
total VZV DNA (VZV; treated at 24 HPI): significantly reduced total VZV DNA; total VZV DNA (VZV; treated at time of infection): significantly reduced total VZV DNA

With substance P as the compound, how does the NK-1R localization [2] read?
The NK-1R localization was “detected predominantly in cytoplasm”.

What about the lamellipodia formation ([2]; CellTracker Deep Red) of the same compound?
Its lamellipodia formation is “lack of lamellipodia”.
